Test results: publication PMC6556873, “Rapid Covalent-Probe Discovery by Electrophile-Fragment Screening” (Journal of the American Chemical Society, 2019)
Where two headings read alike, the source gives them in different places.

Experiments:
in vitro [1] = experiment: in vitro; set-up: species or system HB2, HEK293; settings: human, ccd841 cells
in vitro [2] = experiment: in vitro; set-up: species or system HB2, CCD841; settings: human, hek293 cells
PCAF = target: T1, PCAF (Homo sapiens, UniProt Q92831); set-up: Intact protein LC/MS covalent labelling, fragments in pools of five, 200 uM each, 4 °C; settings: 24 h, 4 °C, pool of five; 200 µM; covalent
T1 construct: gene KAT2B
T1 sequence (Q92831 whole entry, the tested form may be a part): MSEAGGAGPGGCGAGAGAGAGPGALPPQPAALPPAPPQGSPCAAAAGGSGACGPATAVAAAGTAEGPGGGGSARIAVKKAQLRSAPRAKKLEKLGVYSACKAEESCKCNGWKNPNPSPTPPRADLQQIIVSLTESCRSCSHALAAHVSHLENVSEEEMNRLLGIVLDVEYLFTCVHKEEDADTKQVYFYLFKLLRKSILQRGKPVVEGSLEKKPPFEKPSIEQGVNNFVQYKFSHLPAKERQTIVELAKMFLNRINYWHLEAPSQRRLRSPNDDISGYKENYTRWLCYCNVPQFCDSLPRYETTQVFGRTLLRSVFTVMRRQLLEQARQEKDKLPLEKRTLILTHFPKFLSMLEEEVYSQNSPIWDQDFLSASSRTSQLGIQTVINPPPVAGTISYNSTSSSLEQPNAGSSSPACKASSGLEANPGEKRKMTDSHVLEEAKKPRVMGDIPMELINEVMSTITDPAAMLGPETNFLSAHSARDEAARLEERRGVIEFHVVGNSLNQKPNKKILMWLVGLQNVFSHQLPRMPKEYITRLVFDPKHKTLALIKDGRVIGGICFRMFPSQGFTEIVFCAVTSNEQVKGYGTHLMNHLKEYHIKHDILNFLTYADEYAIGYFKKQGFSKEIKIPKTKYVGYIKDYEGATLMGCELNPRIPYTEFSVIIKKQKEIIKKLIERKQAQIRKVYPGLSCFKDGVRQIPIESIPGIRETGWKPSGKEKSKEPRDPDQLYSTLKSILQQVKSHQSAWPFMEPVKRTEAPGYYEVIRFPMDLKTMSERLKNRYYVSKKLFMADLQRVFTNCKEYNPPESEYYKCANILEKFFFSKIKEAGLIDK

OTUB2 (OTUB2A) = target: T2, OTUB2 (OTUB2A) (Homo sapiens, UniProt Q96DC9); set-up: Intact protein LC/MS covalent labelling, fragments in pools of five, 200 uM each, 4 °C; settings: 24 h, 4 °C, pool of five; 200 µM; covalent
T2 construct: full length residues 1-234, E. coli BL21(DE3)-R3, His tag removed by TEV, construct 27312 Da
T2 sequence (Q96DC9 1-234): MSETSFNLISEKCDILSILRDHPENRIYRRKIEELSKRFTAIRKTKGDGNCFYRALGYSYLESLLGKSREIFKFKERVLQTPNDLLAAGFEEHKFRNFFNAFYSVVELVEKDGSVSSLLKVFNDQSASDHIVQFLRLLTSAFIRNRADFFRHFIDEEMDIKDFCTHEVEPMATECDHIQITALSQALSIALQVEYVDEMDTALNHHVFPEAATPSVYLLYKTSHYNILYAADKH

NUDT7 = target: T3, NUDT7 (Homo sapiens, UniProt P0C024); set-up: Intact protein LC/MS covalent labelling, fragments in pools of five, 200 uM each, 4 °C; settings: 24 h, 4 °C, pool of five; 200 µM; covalent
T3 construct: residues 14-235, E. coli, pNIC28-Bsa4, N-terminal His6 tag removed by TEV, construct 26672 Da
T3 sequence (P0C024 14-235): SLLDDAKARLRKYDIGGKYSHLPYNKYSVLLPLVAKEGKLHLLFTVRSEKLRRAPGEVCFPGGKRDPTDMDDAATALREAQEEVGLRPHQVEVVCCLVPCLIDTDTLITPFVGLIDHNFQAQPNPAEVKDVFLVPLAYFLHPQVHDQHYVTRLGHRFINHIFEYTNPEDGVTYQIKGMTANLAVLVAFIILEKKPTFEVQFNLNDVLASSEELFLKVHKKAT

BSA = target: T4, BSA (Bos taurus, UniProt P02769); set-up: Intact protein LC/MS covalent labelling, fragments in pools of five, 200 uM each, 4 °C; settings: 24 h, 4 °C, pool of five; 200 µM; covalent
T4 construct: gene ALB
T4 sequence (P02769 whole entry, the tested form may be a part): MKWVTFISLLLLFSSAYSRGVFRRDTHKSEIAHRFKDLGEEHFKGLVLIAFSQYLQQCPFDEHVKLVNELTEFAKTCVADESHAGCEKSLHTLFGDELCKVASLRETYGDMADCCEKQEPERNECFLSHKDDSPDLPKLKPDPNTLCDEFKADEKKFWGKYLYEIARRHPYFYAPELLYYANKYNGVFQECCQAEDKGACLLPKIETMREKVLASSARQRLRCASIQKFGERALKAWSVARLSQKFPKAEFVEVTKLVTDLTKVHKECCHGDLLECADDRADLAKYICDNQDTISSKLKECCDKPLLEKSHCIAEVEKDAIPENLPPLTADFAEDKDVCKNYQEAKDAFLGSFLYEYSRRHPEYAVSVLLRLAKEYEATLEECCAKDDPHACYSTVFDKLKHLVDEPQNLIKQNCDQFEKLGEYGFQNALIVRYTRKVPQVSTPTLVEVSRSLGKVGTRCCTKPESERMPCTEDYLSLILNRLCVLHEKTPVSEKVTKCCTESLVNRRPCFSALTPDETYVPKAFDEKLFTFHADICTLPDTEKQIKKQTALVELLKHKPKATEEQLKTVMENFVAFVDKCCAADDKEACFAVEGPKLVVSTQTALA

in vitro [3] = experiment: in vitro; set-up: species or system CCD841, HEK293; settings: human, hb2 cells, read-out: HB-2 Cells Viability (%)

Structure (SMILES) | viability at 48 h, 10 µM (in vitro [1]) [%] | viability at 48 h, 10 µM (in vitro [2]) [%] | PCAF (PCAF) | OTUB2 (OTUB2 (OTUB2A)) | NUDT7 (NUDT7) | BSA (BSA) | viability at 48 h, 10 µM (in vitro [3]) [%]
CN(Cc1cccs1)C(=O)CCl [PCM-0102636] | 57.7 | 7 | 0 | 0 | 0.17 | 0 | 11.3
C=CC(=O)N1CCC(S(=O)(=O)C(C)C)CC1 [PCM-0102637] | 119 | 102 | 0 | 0 | 0 | 0 | 98.6
Cc1cc(N2CCN(C(=O)CCl)CC2)nc(C(C)C)n1 [PCM-0102638] | 107 | 89.8 | 0 | 0 | 0 | 0.11 | 97.7
C=CC(=O)Nc1ccnn1-c1ccccc1C [PCM-0102643] | 88.7 | 64.4 | 0 | 0 | 0.12 | 0 | 87.4
C=CC(=O)NCC1CCN(C)c2ccccc21 (centres unmarked) [PCM-0102644] | 98.5 | 73 | 0 | 0 | 0 | 0 | 106
C=CC(=O)NC1CCOC2(CCS(=O)(=O)C2)C1 (centres unmarked) [PCM-0102645] | 115 | 110 | 0 | 0 | 0 | 0 | 102
C=CC(=O)N(C1CC1)C1CC(=O)NC1=O (centres unmarked) [PCM-0102646] | 98.4 | 94.9 | 0 | 0 | 0 | 0 | 103
C=CC(=O)NCC1CCOCO1 (centres unmarked) [PCM-0102648] | 104 | 88.8 | 0 | 0 | 0 | 0.2 | 102
C=CC(=O)N1CC2CC3CC2C1C3OC (centres unmarked) [PCM-0102649] | 118 | 117 | 0 | 0.15 | 0 | 0 | 107
C=CC(=O)N1CCc2c([nH]c3ccccc23)C1 [PCM-0102650] | 107 | 85.6 | 0 | 0 | 0.14 | 0 | 100
CCNC(=O)NC(=O)CCl [PCM-0102654] | 92.6 | 82.2 | 0 | 0 | 0 | 0 | 90.8
CCOC(=O)C1CCN(C(=O)CCl)CC1 [PCM-0102656] | 90.3 | 69.4 | 0 | 0 | 0 | 0 | 86
Cc1c(Cl)cnc(NC(=O)CCl)c1Cl [PCM-0102657] | 98.2 | 99.6 | 0 | 0.2 | 0.06 | 0 | 101
O=C(CCl)N1N=C(c2ccco2)CC1c1ccsc1 (centres unmarked) [PCM-0102659] | 15.6 | 3.5 | 0 | 0 | 0.39 | 0 | 15.3
CC1CCCC(NC(=O)CCl)C1C (centres unmarked) [PCM-0102663] | 104 | 87.3 | 0 | 0.29 | 0 | 0.21 | 98.5
CC(C#N)(NC(=O)CCl)C1CC1 (centres unmarked) [PCM-0102664] | 89.6 | 80.8 | 0 | 0 | 0 | 0 | 99.7

Structure (SMILES) | viability at 48 h, 10 µM (in vitro [1]) [%] | viability at 48 h, 10 µM (in vitro [2]) [%] | PCAF (PCAF) | OTUB2 (OTUB2 (OTUB2A)) | NUDT7 (NUDT7) | BSA (BSA) | viability at 48 h, 10 µM (in vitro [3]) [%]
Cc1cc(NC(=O)CCl)n(-c2ccc(F)cc2)n1 [PCM-0102665] | 67.6 | 20.6 | 0 | 0.53 | 0 | 0 | 57
C=CC(=O)Nc1cccc(Br)c1 [PCM-0102667] | 89.4 | 86.4 | 0 | 0.18 | 0.08 | 0 | 97.1
CN(C(=O)CCl)c1ccc([N+](=O)[O-])cc1 [PCM-0102669] | 17.3 | 10.5 | 0 | 0 | 0.14 | 0 | 12.9
Cl.O=C(CCl)Nc1ccc(N2CCCC2)cc1 [PCM-0102670] | 41.8 | 30.3 | 0 | 0.48 | 0 | 0 | 35
O=C(CCl)NCc1ccco1 [PCM-0102671] | 86 | 86.2 | 0 | 0.35 | 0 | 0 | 102
CN(Cc1ccco1)C(=O)CCl [PCM-0102672] | 78.1 | 49.1 | 0 | 0 | 0.1 | 0 | 51.9
CN(CC(F)(F)F)C(=O)CCl [PCM-0102674] | 105 | 101 | 0 | 0 | 0.11 | 0 | 101
O=C(CCl)N1CCCC(C(F)(F)F)C1 (centres unmarked) [PCM-0102676] | 88.5 | 54.4 | 0 | 0 | 0.14 | 0 | 44.7
C=CC(=O)N1CC(O)CC1c1ccccc1C(F)(F)F (centres unmarked) [PCM-0102677] | 108 | 109 | 0 | 0 | 0 | 0 | 98.4
CN(Cc1cc(Cl)cc(Cl)c1)C(=O)CCl [PCM-0102678] | 22 | 22 | 0 | 0 | 0.45 | 0 | 8.3
C=CC(=O)N1Cc2c(OC)ccc(OC)c2C(O)C1 (centres unmarked) [PCM-0102680] | 135 | 119 | 0 | 0.08 | 0 | 0.1 | 104
C=CC(=O)N1CCN(C(=O)C23CC4CC(CC(C4)C2)C3)CC1 [PCM-0102682] | 103 | 72.7 | 0 | 0 | 0 | 0 | 102
C=CC(=O)N1CCCC1c1cc(C)on1 (centres unmarked) [PCM-0102683] | 101 | 121 | 0 | 0.12 | 0 | 0 | 103
C=CC(=O)N1CC(OC(=O)Nc2cccc(F)c2)C1 [PCM-0102688] | 99 | 95.8 | 0 | 0.17 | 0 | 0 | 82.3
C=CC(=O)N1CCCC(c2nc(-c3cccc(F)c3)no2)C1 (centres unmarked) [PCM-0102689] | 97.4 | 89.4 | 0 | 0 | 0 | 0 | 101
C=CC(=O)N1CCC2(CC1)CNC(=O)C2 [PCM-0102690] | 107 | 95.1 | 0 | 0 | 0 | 0 | 100
